The values that follow come from publication PMC8213057, “Targeting ALK2: An Open Science Approach to Developing Therapeutics for the Treatment of Diffuse Intrinsic Pontine Glioma” (Journal of Medicinal Chemistry, 2020).

The target in test [1] is CYP1A2.
For test [2], the target named is CYP2C9.
Test [3] concerns TNIK.
In test [4] the target is T1, TGFBR2 (Homo sapiens, UniProt P37173).
T1 construct: purchased Reaction Biology Corporation
As to the kind of experiment: 375-member kinase panel. Format: biochemical. Particulars: Run 1, Run 2; for % enzyme activity: 1 μM; for remaining activity at 1 µM: read-out: % enzyme activity, 1 μM.

Test [5] has as its target DYRK1/DYRK1A (Homo sapiens, UniProt Q13627). Particulars: 1 μM; Run 1, Run 2.
Test [6] addresses FER (Homo sapiens, UniProt P16591). Particulars: 1 μM; Run 1, Run 2.
Test [7] has as its target T2, Haspin (Homo sapiens, UniProt Q8TF76).
T2 sequence (Q8TF76 1-798): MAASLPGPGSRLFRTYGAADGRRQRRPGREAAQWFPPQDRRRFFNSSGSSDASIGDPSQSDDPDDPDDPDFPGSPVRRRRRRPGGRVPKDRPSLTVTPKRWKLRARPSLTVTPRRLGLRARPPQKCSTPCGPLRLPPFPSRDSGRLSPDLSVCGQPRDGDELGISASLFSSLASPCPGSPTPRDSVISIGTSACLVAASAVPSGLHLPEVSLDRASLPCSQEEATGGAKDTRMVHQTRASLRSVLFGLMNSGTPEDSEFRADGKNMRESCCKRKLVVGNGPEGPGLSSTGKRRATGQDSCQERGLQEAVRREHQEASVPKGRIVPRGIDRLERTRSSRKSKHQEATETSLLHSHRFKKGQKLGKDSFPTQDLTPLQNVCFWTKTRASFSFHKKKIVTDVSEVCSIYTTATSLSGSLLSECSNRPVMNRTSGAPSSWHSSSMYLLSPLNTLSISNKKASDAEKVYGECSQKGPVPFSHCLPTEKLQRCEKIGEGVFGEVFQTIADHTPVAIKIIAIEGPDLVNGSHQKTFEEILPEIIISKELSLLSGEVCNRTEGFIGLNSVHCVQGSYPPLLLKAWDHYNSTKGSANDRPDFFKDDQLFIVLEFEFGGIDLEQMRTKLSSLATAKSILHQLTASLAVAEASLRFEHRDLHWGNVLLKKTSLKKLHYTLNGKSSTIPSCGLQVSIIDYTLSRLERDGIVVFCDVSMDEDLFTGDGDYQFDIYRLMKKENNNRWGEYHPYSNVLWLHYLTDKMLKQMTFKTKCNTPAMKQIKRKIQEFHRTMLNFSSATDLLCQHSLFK
As to conditions: 1 μM; Run 1, Run 2.

For test [8], the target named is MLK1/MAP3K9 (Homo sapiens, UniProt P80192). As to conditions: 1 μM; Run 1, Run 2.
In test [9] the target is T3, NEK2 (Homo sapiens, UniProt P51955).
T3 sequence (P51955 1-445): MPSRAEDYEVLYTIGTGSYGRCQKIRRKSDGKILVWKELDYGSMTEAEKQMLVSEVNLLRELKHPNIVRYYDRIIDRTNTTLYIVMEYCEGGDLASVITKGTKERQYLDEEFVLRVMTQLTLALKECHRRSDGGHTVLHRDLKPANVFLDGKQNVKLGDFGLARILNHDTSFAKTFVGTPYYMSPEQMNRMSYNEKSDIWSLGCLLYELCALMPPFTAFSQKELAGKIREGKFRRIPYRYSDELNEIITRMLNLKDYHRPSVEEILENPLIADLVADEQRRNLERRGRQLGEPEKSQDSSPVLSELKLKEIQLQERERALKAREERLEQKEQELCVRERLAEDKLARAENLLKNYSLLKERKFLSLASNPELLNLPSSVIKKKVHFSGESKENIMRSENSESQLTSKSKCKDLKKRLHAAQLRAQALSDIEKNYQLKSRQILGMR
Particulars: 1 μM; Run 1, Run 2.

For test [10], the target named is WNK2 (Homo sapiens, UniProt Q9Y3S1). Particulars: 1 μM; Run 1, Run 2.
WNK2, sequence (Q9Y3S1 whole entry, species assumed): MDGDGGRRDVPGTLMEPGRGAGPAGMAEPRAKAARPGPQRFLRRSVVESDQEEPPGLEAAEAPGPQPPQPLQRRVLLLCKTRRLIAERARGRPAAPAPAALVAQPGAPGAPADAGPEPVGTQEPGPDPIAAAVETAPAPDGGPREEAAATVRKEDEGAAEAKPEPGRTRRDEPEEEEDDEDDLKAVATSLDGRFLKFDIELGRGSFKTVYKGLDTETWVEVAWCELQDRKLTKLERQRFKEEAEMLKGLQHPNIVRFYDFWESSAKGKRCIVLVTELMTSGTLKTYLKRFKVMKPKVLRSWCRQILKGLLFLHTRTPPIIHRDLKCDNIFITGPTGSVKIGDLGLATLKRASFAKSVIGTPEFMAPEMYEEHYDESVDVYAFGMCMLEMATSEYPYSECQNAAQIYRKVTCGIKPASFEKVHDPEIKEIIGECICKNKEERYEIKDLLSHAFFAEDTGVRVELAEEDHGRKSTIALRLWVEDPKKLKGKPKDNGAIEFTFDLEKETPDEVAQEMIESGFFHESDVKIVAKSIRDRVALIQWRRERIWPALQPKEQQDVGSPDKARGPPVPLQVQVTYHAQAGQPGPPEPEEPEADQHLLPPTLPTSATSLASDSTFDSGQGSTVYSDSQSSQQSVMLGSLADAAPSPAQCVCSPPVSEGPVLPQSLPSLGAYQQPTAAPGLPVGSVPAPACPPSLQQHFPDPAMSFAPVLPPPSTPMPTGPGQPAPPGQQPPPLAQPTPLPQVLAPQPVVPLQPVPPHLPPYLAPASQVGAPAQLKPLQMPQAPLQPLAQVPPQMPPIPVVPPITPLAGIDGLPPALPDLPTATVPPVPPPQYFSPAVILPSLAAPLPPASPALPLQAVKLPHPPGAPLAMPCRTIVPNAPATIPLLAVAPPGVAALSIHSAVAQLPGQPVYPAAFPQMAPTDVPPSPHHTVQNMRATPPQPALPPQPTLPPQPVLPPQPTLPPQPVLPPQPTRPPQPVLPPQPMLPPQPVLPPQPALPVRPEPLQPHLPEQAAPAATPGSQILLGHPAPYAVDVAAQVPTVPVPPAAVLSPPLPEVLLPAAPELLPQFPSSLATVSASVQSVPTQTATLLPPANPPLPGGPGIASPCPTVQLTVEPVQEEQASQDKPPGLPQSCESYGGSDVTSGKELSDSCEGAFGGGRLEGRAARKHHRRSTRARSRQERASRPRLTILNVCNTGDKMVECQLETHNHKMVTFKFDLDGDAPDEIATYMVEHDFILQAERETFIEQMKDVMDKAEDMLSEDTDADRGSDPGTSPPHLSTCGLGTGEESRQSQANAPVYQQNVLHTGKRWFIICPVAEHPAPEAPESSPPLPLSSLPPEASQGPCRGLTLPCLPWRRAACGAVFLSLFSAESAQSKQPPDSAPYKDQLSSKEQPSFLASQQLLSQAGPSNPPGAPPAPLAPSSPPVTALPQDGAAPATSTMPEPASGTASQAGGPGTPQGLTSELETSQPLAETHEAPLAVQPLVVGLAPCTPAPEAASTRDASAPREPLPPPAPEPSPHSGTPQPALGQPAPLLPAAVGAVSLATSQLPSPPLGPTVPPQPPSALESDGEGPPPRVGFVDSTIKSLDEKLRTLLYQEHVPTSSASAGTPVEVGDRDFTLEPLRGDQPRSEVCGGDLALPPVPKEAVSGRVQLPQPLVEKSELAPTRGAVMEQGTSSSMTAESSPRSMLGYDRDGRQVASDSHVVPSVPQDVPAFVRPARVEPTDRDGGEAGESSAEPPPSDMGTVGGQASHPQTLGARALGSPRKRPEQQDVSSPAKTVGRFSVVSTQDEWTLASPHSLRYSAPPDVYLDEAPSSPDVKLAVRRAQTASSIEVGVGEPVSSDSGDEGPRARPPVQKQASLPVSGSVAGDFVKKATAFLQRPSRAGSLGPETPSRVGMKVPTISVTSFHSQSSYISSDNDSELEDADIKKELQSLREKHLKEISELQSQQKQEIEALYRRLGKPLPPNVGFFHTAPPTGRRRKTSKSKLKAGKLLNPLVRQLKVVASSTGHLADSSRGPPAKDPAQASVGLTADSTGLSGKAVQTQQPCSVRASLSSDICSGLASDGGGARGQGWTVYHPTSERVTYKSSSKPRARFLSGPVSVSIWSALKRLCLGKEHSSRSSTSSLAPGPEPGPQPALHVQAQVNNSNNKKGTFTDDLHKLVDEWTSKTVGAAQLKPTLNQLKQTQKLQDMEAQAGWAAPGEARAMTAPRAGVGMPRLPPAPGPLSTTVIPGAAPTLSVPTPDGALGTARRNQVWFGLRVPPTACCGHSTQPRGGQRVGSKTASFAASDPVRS
The target in test [11] is c-Kit (Homo sapiens, UniProt P10721). As to the kind of experiment: biochemical. Particulars: read-out: % enzyme activity, 1 μM; Run 1, Run 2.
Test [12] addresses CLK1 (Homo sapiens, UniProt P49759). The test can be described thus: biochemical. Particulars: read-out: % enzyme activity, 1 μM; Run 1, Run 2.
The target in test [13] is T4, IKKb/IKBKB (Homo sapiens, UniProt O14920).
T4 sequence (O14920 1-756): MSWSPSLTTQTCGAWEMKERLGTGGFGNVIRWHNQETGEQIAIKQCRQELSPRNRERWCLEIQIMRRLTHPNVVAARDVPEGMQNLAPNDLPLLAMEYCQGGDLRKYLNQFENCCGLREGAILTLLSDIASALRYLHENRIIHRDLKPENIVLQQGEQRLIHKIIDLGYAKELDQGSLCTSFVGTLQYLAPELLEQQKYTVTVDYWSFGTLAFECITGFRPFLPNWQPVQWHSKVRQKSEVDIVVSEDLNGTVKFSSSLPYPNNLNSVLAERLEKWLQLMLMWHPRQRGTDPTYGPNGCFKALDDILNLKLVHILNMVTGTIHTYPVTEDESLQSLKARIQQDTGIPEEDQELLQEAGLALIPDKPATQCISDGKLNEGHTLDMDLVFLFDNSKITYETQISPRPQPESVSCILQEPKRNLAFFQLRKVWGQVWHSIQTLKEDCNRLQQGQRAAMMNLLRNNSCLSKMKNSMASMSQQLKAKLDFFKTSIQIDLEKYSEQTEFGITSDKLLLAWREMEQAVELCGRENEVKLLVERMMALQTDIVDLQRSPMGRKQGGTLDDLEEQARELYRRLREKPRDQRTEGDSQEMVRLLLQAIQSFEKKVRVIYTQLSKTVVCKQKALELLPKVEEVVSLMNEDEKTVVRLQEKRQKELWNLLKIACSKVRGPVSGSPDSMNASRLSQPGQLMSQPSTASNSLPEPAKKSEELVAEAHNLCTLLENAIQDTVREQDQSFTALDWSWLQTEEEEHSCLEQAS
The test can be described thus: biochemical. As to conditions: read-out: % enzyme activity, 1 μM; Run 1, Run 2.

Test [14] addresses JAK1 (Homo sapiens, UniProt P23458). As to the kind of experiment: biochemical. As to conditions: read-out: % enzyme activity, 1 μM; Run 1, Run 2.
The target of test [15] is MRCKb/CDC42BPB (Homo sapiens, UniProt Q9Y5S2). As to the kind of experiment: biochemical. As to conditions: read-out: % enzyme activity, 1 μM; Run 1, Run 2.

Where “and” joins values, the source holds several entries; their conditions need not be identical. Equal values may be shown once.

T1 sequence (P37173 23-567): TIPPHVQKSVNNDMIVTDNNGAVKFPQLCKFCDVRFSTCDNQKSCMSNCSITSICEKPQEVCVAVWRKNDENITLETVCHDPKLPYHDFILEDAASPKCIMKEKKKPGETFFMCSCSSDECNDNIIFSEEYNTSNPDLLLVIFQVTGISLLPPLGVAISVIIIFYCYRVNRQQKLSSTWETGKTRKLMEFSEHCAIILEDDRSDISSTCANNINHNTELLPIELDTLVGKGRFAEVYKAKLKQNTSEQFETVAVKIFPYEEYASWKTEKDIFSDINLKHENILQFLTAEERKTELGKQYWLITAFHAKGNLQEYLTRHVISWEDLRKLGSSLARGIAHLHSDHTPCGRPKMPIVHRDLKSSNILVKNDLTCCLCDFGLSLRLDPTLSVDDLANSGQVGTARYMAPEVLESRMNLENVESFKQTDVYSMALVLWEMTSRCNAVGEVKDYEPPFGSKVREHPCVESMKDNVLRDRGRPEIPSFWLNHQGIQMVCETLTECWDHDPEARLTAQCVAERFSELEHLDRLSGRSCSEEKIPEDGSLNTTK
JAK1, sequence (P23458 whole entry): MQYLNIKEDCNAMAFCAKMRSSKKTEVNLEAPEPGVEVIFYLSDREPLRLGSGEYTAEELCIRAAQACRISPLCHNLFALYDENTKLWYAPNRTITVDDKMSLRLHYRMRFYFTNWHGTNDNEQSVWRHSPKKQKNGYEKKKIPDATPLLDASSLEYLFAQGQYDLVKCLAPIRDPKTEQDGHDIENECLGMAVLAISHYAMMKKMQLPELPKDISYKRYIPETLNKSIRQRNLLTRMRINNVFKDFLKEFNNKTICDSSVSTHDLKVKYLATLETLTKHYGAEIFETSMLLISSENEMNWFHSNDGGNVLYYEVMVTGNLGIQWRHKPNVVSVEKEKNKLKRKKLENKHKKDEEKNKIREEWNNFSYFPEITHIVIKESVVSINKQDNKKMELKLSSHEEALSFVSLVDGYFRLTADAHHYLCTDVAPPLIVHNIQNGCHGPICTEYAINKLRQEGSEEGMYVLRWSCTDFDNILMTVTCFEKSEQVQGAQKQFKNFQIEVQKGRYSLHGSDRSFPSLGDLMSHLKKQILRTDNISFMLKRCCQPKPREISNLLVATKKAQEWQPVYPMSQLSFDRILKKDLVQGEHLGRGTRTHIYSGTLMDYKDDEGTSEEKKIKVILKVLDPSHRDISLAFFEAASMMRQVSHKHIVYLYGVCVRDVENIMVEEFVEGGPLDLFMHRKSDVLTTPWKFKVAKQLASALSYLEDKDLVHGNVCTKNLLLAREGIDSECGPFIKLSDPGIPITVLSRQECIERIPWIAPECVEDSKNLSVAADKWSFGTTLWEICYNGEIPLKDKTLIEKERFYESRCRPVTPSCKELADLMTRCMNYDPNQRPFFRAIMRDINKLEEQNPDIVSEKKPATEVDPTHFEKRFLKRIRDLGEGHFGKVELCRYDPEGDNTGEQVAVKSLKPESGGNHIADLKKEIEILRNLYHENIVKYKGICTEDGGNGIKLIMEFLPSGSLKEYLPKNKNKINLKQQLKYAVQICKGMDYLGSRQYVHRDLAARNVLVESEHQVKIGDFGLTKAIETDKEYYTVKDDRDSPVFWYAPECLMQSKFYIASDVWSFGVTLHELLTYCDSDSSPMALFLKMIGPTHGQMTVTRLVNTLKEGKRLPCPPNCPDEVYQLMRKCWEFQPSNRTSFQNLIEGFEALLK
CLK1, sequence (P49759 whole entry): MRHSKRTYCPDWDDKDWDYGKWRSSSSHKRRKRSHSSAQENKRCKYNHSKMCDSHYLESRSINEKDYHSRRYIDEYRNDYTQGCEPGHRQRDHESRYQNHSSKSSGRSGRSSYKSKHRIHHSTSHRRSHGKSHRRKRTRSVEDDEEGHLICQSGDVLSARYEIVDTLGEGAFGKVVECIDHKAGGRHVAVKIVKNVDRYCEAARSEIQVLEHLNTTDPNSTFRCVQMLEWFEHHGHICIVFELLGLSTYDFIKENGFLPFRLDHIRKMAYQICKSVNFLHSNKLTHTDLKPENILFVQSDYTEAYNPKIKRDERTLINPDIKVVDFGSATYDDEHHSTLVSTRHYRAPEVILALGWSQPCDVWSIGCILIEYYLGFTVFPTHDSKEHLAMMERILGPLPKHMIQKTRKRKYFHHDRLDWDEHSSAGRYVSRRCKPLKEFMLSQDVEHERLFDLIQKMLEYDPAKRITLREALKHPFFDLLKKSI

In the case of `COc1cc(-c2cncc(-c3ccc(N4C[C@@H](C)N(C)[C@@H](C)C4)cc3)c2C)cc(F)c1C(N)=O` [Compound 26c, 2-Fluoro-6-methoxy-4-(4-methyl-5-(4-((3R,5S)-3,4,5-trimethylpiperazin-1-yl)phenyl)pyridin-3-yl)benzamide], the CYP inhibition in [1] and in test [2] was > 50 µM throughout. Further, the % enzyme activity at 1 μM in test [3] was 4.85% and 3.92%. Besides, the “% enzyme activity” value in test [4] turned out to be 105.33%; in test [5], 60.05%; in test [6] it was 84.91%; in test [7], 82.31%; in [8], 98.95%; in test [9] it was 96.23%. In addition, the “% enzyme activity” value in test [10] was 93.64%. In addition, the remaining activity at 1 µM in test [4] stood at 106%; in test [11], 75.8%; in [12] it was 88%; in [13], 101%; in test [14], 101%; in test [15], 99.7%.
Regarding `COc1cc(-c2cncc(-c3ccc(N4CCN(C)CC4)cc3)c2C)cc(F)c1C(N)=O` [Compound 26a, 2-Fluoro-6-methoxy-4-(4-methyl-5-(4-(4-methylpiperazin-1-yl)phenyl)pyridin-3-yl)benzamide], the CYP inhibition in test [1] and in test [2] was > 50 µM throughout. The % enzyme activity at 1 μM in test [3] was -0.77% and -2.62%. In addition, the “% enzyme activity” value is on record as 97.44% in test [4]; 43.07% in [5]; 86.16% in test [6]; 82.77% in [7]; 110.44% in [8]; 90.39% in test [9]. Further, the “% enzyme activity” value in test [10] is given as 95.09%. The remaining activity at 1 µM in test [4] came out at 103%; in test [11] it was 74.1%; in test [12], 97.8%; in test [13], 104%; in test [14], 102%; in test [15], 94.6%.
